According to patent US20040116405A1, “Use of bicyclic esters or amides for the treatment of diseases responsive to enhanced potassium channel activity” (priority 2001, published 2004):

Target: T1, hIK channels (Homo sapiens, UniProt O15554)
T1 construct: The full length hSK-1, 2, 3 and IK clones were obtained; expressed in transfected cells
Assay: Whole cell patch clamp electrophysiology, hIK channels expressed in CHO-K1 cells (FIG. 1)
Format: cell-based
Method: FIG. 1 illustrates the activation of hIK channels expressed in CHO—K1 cells by a compound of formula (V): [drawing 3]
The full length hSK-1, 2, 3 and IK clones were obtained either by PCR and 5′-RACE from a human cDNA library (Genbank accession numbers hSK1 U69883; hSK-2 unpublished) or from the Incyte or dbEST databases (Incyte Pharmaceuticals, Inc.; hSK3 AJ251016, hIK AF022797). An optimal Kozak sequence was added to the initiation site and the cDNA was cloned into Bluescript and subsequently the IRES vector pCIN5 for mammalian expression.
All SK/IK stable cell lines were generated in CHO—K1 using the pCIN5 construct, under selection for resistance to 500 μg/ml geneticin. Five μg of the purified plasmid DNA was used to transfect 5×10^6 CHO—K1 cells (ATCC N° CRL 9618) by electroporation (standard protocol with BIORAD Gene Pulser II). […]
Standard whole cell patch clamp electrophysiology methods are used to record membrane currents from single cells expressing either SK or IK channels. […] Membrane currents are amplified and recorded with an Axopatch 200B or HEKA EPC-9 patch clamp amplifier coupled to a Pentium microprocessor via an analog-digital interface. […] Pipettes are backfilled with an internal solution containing a 144 mM KCl, 10 mM EGTA, 10 mM HEPES, 1 mM MgCl2 and concentrations of CaCl2 calculated to give free Ca^2+ concentrations ranging from 30 nM to 1 μM. […]

| Molecule | activation of hIK channels (whole cell currents, timecourse, concentration response curves) (hIK expressed in CHO-K1 cells, FIG. 1(a)-(c)) | inhibition of hIK current by the IK blocker (charybdotoxin 100 nM, hIK in CHO-K1 cells activated by compound of formula (V), FIG. 1(d)) |
| --- | --- | --- |
| NC(=O)/C=C1\CCc2c(F)cc(F)cc21 [compound of formula (V)] | activation |  |
| charybdotoxin |  | inhibition |
